Test results reported in ChEMBL document CHEMBL2010711, “Synthesis and comparative evaluation of 4-oxa- and 4-aza-podophyllotoxins as antiproliferative microtubule destabilizing agents” (Bioorg Med Chem Lett, 2012).
Calls of active or inactive are those of the source.

Key:
SR = assay: Cytotoxicity against human SR cells after 48 hrs by trypan blue dye exclusion assay; type: functional
Paracentrotus lividus [1] = assay: Antimitotic activity against Paracentrotus lividus embryo assessed as concentration required to cause 100% cleavage arrest after 2.5 to 6 hrs; type: functional
T47D = assay: Cytotoxicity against human T47D cells after 48 hrs by trypan blue dye exclusion assay; type: functional
Paracentrotus lividus [2] = assay: Antimitotic activity against Paracentrotus lividus embryo assessed as cleavage arrest at 2 fold less effective threshold concentration after 2.5 to 6 hrs; type: functional, organism-based
UACC-62 = assay: Cytotoxicity against human UACC62 cells after 48 hrs by trypan blue dye exclusion assay; type: functional; settings: UACC-62, 48 h
NCI/ADR-RES = assay: Cytotoxicity against human NCI/ADR-RES cells after 48 hrs by trypan blue dye exclusion assay; type: functional
SN12C = assay: Cytotoxicity against human SN12C cells after 48 hrs by trypan blue dye exclusion assay; type: functional
SF-268 = assay: Cytotoxicity against human SF268 cells after 48 hrs by trypan blue dye exclusion assay; type: functional; settings: SF-268, 48 h
COLO 205 = assay: Cytotoxicity against human COLO205 cells after 48 hrs by trypan blue dye exclusion assay; type: functional; settings: COLO 205, 48 h
KM12 = assay: Cytotoxicity against human KM12 cells after 48 hrs by trypan blue dye exclusion assay; type: functional; settings: KM12, 48 h
MCF7 = assay: Cytotoxicity against human MCF7 cells after 48 hrs by trypan blue dye exclusion assay; type: functional; settings: MCF7, 48 h
PC-3 = assay: Cytotoxicity against human PC3 cells after 48 hrs by trypan blue dye exclusion assay; type: functional; settings: PC-3, 48 h
ACHN = assay: Cytotoxicity against human ACHN cells after 48 hrs by trypan blue dye exclusion assay; type: functional
OVCAR-8 = assay: Cytotoxicity against human OVCAR8 cells after 48 hrs by trypan blue dye exclusion assay; type: functional; settings: OVCAR-8, 48 h
OVCAR-4 = assay: Cytotoxicity against human OVCAR4 cells after 48 hrs by trypan blue dye exclusion assay; type: functional; settings: OVCAR-4, 48 h
SK-MEL-2 = assay: Cytotoxicity against human SK-MEL-2 cells after 48 hrs by trypan blue dye exclusion assay; type: functional; settings: SK-MEL-2, 48 h
BT-549 = assay: Cytotoxicity against human BT549 cells after 48 hrs by trypan blue dye exclusion assay; type: functional; settings: BT-549, 48 h
HT-29 = assay: Cytotoxicity against human HT-29 cells after 48 hrs by trypan blue dye exclusion assay; type: functional; settings: HT-29, 48 h
NCI-H460 = assay: Cytotoxicity against human NCI-H460 cells after 48 hrs by trypan blue dye exclusion assay; type: functional; settings: NCI-H460, 48 h
HCT-116 = assay: Cytotoxicity against human HCT116 cells after 48 hrs by trypan blue dye exclusion assay; type: functional; settings: HCT-116, 48 h
RXF 393 = assay: Cytotoxicity against human RXF393 cells after 48 hrs by trypan blue dye exclusion assay; type: functional; settings: RXF 393, 48 h
EKVX = assay: Cytotoxicity against human EKVX cells after 48 hrs by trypan blue dye exclusion assay; type: functional
OVCAR-3 = assay: Cytotoxicity against human OVCAR3 cells after 48 hrs by trypan blue dye exclusion assay; type: functional; settings: OVCAR-3, 48 h
Paracentrotus lividus [3] = assay: Microtubule destabilizing activity in Paracentrotus lividus embryo assessed as embryo spinning at 2 fold less effective threshold concentration after 15 mins to 20 hrs; type: functional, organism-based
Paracentrotus lividus [4] = assay: Antimitotic activity against Paracentrotus lividus embryo assessed as cleavage alteration at 2 fold less effective threshold concentration after 2.5 to 6 hrs; type: functional, organism-based
OVCAR-5 = assay: Cytotoxicity against human OVCAR5 cells after 48 hrs by trypan blue dye exclusion assay; type: functional; settings: OVCAR-5, 48 h
Paracentrotus lividus [5] = assay: Antimitotic activity against Paracentrotus lividus embryo assessed as concentration required to cause 100% cleavage alteration after 2.5 to 6 hrs; type: functional
NCI-H226 = assay: Cytotoxicity against human NCI-H226 cells after 48 hrs by trypan blue dye exclusion assay; type: functional; settings: NCI-H226, 48 h
DU-145 = assay: Cytotoxicity against human DU145 cells after 48 hrs by trypan blue dye exclusion assay; type: functional; settings: DU-145, 48 h
IGROV-1 = assay: Cytotoxicity against human IGROV1 cells after 48 hrs by trypan blue dye exclusion assay; type: functional; settings: IGROV-1, 48 h
MOLT-4 = assay: Cytotoxicity against human MOLT4 cells after 48 hrs by trypan blue dye exclusion assay; type: functional; settings: MOLT-4, 48 h
MDA-MB-435 = assay: Cytotoxicity against human MDA-MB-435 cells after 48 hrs by trypan blue dye exclusion assay; type: functional; settings: MDA-MB-435, 48 h
MDA-MB-231 = assay: Cytotoxicity against human MDA-MB-231 cells after 48 hrs by trypan blue dye exclusion assay; type: functional; settings: MDA-MB-231, 48 h
HCT-15 = assay: Cytotoxicity against human HCT15 cells after 48 hrs by trypan blue dye exclusion assay; type: functional; settings: HCT-15, 48 h
SK-OV-3 = assay: Cytotoxicity against human SKOV3 cells after 48 hrs by trypan blue dye exclusion assay; type: functional; settings: SK-OV-3, 48 h
786-0 = assay: Cytotoxicity against human 786-0 cells after 48 hrs by trypan blue dye exclusion assay; type: functional; settings: 786-0, 48 h
RPMI-8226 = assay: Cytotoxicity against human RPMI8226 cells after 48 hrs by trypan blue dye exclusion assay; type: functional; settings: RPMI-8226, 48 h
LOX IMVI = assay: Cytotoxicity against human LOXIMVI cells after 48 hrs by trypan blue dye exclusion assay; type: functional
A498 = assay: Cytotoxicity against human A498 cells after 48 hrs by trypan blue dye exclusion assay; type: functional; settings: A498, 48 h
SK-MEL-28 = assay: Cytotoxicity against human SK-MEL-28 cells after 48 hrs by trypan blue dye exclusion assay; type: functional; settings: SK-MEL-28, 48 h
[6] = Cytotoxicity against human Hs 578T cells after 48 hrs by trypan blue dye exclusion assay; type: functional
SNB-75 = assay: Cytotoxicity against human SNB75 cells after 48 hrs by trypan blue dye exclusion assay; type: functional; settings: SNB-75, 48 h
SF-539 = assay: Cytotoxicity against human SF539 cells after 48 hrs by trypan blue dye exclusion assay; type: functional; settings: SF-539, 48 h
M14 = assay: Cytotoxicity against human M14 cells after 48 hrs by trypan blue dye exclusion assay; type: functional; settings: M14, 48 h
SW-620 = assay: Cytotoxicity against human SW620 cells after 48 hrs by trypan blue dye exclusion assay; type: functional; settings: SW-620, 48 h
HL-60(TB) = assay: Cytotoxicity against human HL-60(TB) cells after 48 hrs by trypan blue dye exclusion assay; type: functional; settings: HL-60, 48 h
NCI-H23 = assay: Cytotoxicity against human NCI-H23 cells after 48 hrs by trypan blue dye exclusion assay; type: functional; settings: NCI-H23, 48 h
CCRF-CEM = assay: Cytotoxicity against human CCRF-CEM cells after 48 hrs by trypan blue dye exclusion assay; type: functional
UO-31 = assay: Cytotoxicity against human UO31 cells after 48 hrs by trypan blue dye exclusion assay; type: functional; settings: UO-31, 48 h
SNB-19 = assay: Cytotoxicity against human SNB19 cells after 48 hrs by trypan blue dye exclusion assay; type: functional; settings: SNB-19, 48 h
HOP-92 = assay: Cytotoxicity against human HOP92 cells after 48 hrs by trypan blue dye exclusion assay; type: functional; settings: HOP-92, 48 h
HCC 2998 = assay: Cytotoxicity against human HCC2998 cells after 48 hrs by trypan blue dye exclusion assay; type: functional; settings: HCC 2998, 48 h
U-251 = assay: Cytotoxicity against human U251 cells after 48 hrs by trypan blue dye exclusion assay; type: functional; settings: U-251, 48 h
SF-295 = assay: Cytotoxicity against human SF295 cells after 48 hrs by trypan blue dye exclusion assay; type: functional; settings: SF-295, 48 h
Malme-3M = assay: Cytotoxicity against human MALME-3M cells after 48 hrs by trypan blue dye exclusion assay; type: functional
TK-10 = assay: Cytotoxicity against human TK10 cells after 48 hrs by trypan blue dye exclusion assay; type: functional; settings: TK-10, 48 h
A549 = assay: Cytotoxicity against human A549 cells after 48 hrs by trypan blue dye exclusion assay; type: functional; settings: A549, 48 h
NCI-H522 = assay: Cytotoxicity against human NCI-H522 cells after 48 hrs by trypan blue dye exclusion assay; type: functional; settings: NCI-H522, 48 h
Paracentrotus lividus [7] = assay: Microtubule destabilizing activity in Paracentrotus lividus embryo assessed as concentration required to cause 100% embryo spinning after 15 mins to 20 hrs; type: functional
MDA-MB-468 = assay: Cytotoxicity against human MDA-MB-468 cells after 48 hrs by trypan blue dye exclusion assay; type: functional; settings: MDA-MB-468, 48 h

## COc1ccc2c(c1)OC1=C(C(=O)OC1)C2c1cc(OC)c(OC)c(OC)c1 (stereo not given)
SR
  GI50: 242 nM
Paracentrotus lividus [1]
  EC: 50 nM
T47D
  GI50: 489 nM
Paracentrotus lividus [2]
  Activity: inactive
UACC-62
  GI50: 568 nM
NCI/ADR-RES
  GI50: 334 nM
SN12C
  GI50: 993 nM
SF-268
  GI50: 731 nM
COLO 205
  GI50: 309 nM
KM12
  GI50: 464 nM
MCF7
  GI50: 330 nM
PC-3
  GI50: 482 nM
ACHN
  GI50: 1630 nM
OVCAR-8
  GI50: 788 nM
OVCAR-4
  GI50: 2650 nM
SK-MEL-2
  GI50: 439 nM
BT-549
  GI50: 947 nM
HT-29
  GI50: 323 nM
NCI-H460
  GI50: 1270 nM
HCT-116
  GI50: 496 nM
RXF 393
  GI50: 231 nM
EKVX
  GI50: 1420 nM
OVCAR-3
  GI50: 332 nM
Paracentrotus lividus [3]
  Activity: inactive
Paracentrotus lividus [4]
  Activity: inactive
OVCAR-5
  GI50: 4680 nM
Paracentrotus lividus [5]
  EC: 5 nM
NCI-H226
  GI50: 47500 nM
DU-145
  GI50: 648 nM
IGROV-1
  GI50: 1130 nM
MOLT-4
  GI50: 515 nM
MDA-MB-435
  GI50: 120 nM
MDA-MB-231
  GI50: 1740 nM
HCT-15
  GI50: 508 nM
SK-OV-3
  GI50: 368 nM
786-0
  GI50: 562 nM
RPMI-8226
  GI50: 816 nM
LOX IMVI
  GI50: 505 nM
A498
  GI50: 295 nM
SK-MEL-28
  GI50: 667 nM
[6]
  GI50: 377 nM
SNB-75
  GI50: 172 nM
SF-539
  GI50: 376 nM
M14
  GI50: 505 nM
SW-620
  GI50: 352 nM
HL-60(TB)
  GI50: 249 nM
NCI-H23
  GI50: 441 nM
CCRF-CEM
  GI50: 315 nM
UO-31
  GI50: 936 nM
SNB-19
  GI50: 553 nM
HOP-92
  GI50: 496 nM
HCC 2998
  GI50: 1350 nM
U-251
  GI50: 731 nM
SF-295
  GI50: 288 nM
Malme-3M
  GI50: 468 nM
TK-10
  GI50: > 100000 nM
A549
  GI50: 707 nM
NCI-H522
  GI50: 378 nM
Paracentrotus lividus [7]
  EC: 200 nM
MDA-MB-468
  GI50: 232 nM
